Results from ChEMBL document CHEMBL1201862, “PubChem BioAssay data set” (2004).
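Method: 48-hour compound exposure of cells in 96-well plates, five concentrations, linear interpolation of endpoints. The concentration for 50% growth inhibition is given as GI50.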 Activity calls are given as the source filed them. Rule as the data show it: active = GI50 up to about 1.1 µM and inactive = higher.

Legend:
Test in all cases: inhibition of tumour cell growth, NCI panel, 48 h
SF-268 = tested on: SF-268
DU-145 = tested on: DU-145
NCI-H460 = tested on: NCI-H460
A549 = tested on: A549
MDA-MB-435 = tested on: MDA-MB-435
HCT-15 = tested on: HCT-15
M14 = tested on: M14
SN12C = tested on: SN12C
IGROV-1 = tested on: IGROV-1
EKVX = tested on: EKVX
HL-60 = tested on: HL-60
MDA-MB-231 = tested on: MDA-MB-231
MOLT-4 = tested on: MOLT-4
CAKI-1 = tested on: CAKI-1
NCI-H23 = tested on: NCI-H23
T47D = tested on: T47D
BT-549 = tested on: BT-549
TK-10 = tested on: TK-10
A498 = tested on: A498
RXF 393 = tested on: RXF 393

SMILES | GI50 (SF-268) | GI50 (DU-145) | GI50 (NCI-H460) | GI50 (A549) | GI50 (MDA-MB-435) | GI50 (HCT-15) [µM] | GI50 (M14) | GI50 (SN12C) | GI50 (IGROV-1) | GI50 (EKVX) | GI50 (HL-60) | GI50 (MDA-MB-231) | GI50 (MOLT-4) | GI50 (CAKI-1) | GI50 (NCI-H23) | GI50 (T47D) | GI50 (BT-549) | GI50 (TK-10) | GI50 (A498) | GI50 (RXF 393)
Clc1cc2c(cc1Cl)CC(NCCN1CCCC1)CC2 (stereo not given) | 15.3 µM (inactive) | 14.7 µM (inactive) | 16.4 µM (inactive) | 14.8 µM (inactive) | 3.73 µM (inactive) | 12.9 | 12 µM (inactive) | 15.8 µM (inactive) | 15.4 µM (inactive) | 18.7 µM (inactive) | 14.6 µM (inactive) | 15.1 µM (inactive) | 20.5 µM (inactive) | 15.7 µM (inactive) | 16 µM (inactive) | 10.4 µM (inactive) | 15 µM (inactive) | 14.4 µM (inactive) | 13.7 µM (inactive) | 
O=C1C2C=CC1C1C(=O)OC(=O)C21 (stereo not given) | > 100 µM (inactive) | > 100 µM (inactive) | > 100 µM (inactive) | > 100 µM (inactive) | > 100 µM (inactive) | > 100 | > 100 µM (inactive) | > 100 µM (inactive) | > 100 µM (inactive) | > 100 µM (inactive) | > 100 µM (inactive) | > 100 µM (inactive) | > 100 µM (inactive) | > 100 µM (inactive) | > 100 µM (inactive) | > 100 µM (inactive) | > 100 µM (inactive) | > 100 µM (inactive) | > 100 µM (inactive) | 
O=C(Nc1ccccc1C(=O)O)/C(=C/c1ccccc1)NC(=O)c1ccccc1 | > 100 µM (inactive) | > 100 µM (inactive) | > 100 µM (inactive) | > 100 µM (inactive) | > 100 µM (inactive) | > 100 | > 100 µM (inactive) | > 100 µM (inactive) | > 100 µM (inactive) | > 100 µM (inactive) | > 100 µM (inactive) | > 100 µM (inactive) | > 100 µM (inactive) | > 100 µM (inactive) | > 100 µM (inactive) | > 100 µM (inactive) | > 100 µM (inactive) |  | > 100 µM (inactive) | 65.9 µM (inactive)
CC(=O)O[C@H]1C[C@@H](OC(C)=O)[C@@](C)(O)[C@@H]2[C@@H](OC(C)=O)[C@@]3(O)[C@H](/C=C(/CO)[C@H]4O[C@H]4[C@@H](OC(C)=O)[C@@]12C)OC(=O)[C@@H]3C | 19.1 µM (inactive) | 5.27 µM (inactive) | 8.13 µM (inactive) | 10.4 µM (inactive) | 5.42 µM (inactive) | 9.1 | 10.8 µM (inactive) | 12.2 µM (inactive) | 8.17 µM (inactive) | > 25 µM (inactive) |  | 7.06 µM (inactive) | 16.4 µM (inactive) | 17.7 µM (inactive) | 16.8 µM (inactive) | 22.4 µM (inactive) | > 25 µM (inactive) | > 25 µM (inactive) | > 25 µM (inactive) | 2.08 µM (inactive)
C=CC(Br)(CBr)CCC(Br)C(C)(C)Cl (stereo not given) | 2.02 µM (inactive) | 3.37 µM (inactive) | 2.21 µM (inactive) | 11.5 µM (inactive) | 2.3 µM (inactive) | 2.58 | 5.14 µM (inactive) | 5.48 µM (inactive) | 5.31 µM (inactive) | 8.18 µM (inactive) | 0.807 µM (active) | 2.49 µM (inactive) | 0.555 µM (active) |  | 6.31 µM (inactive) | 1.67 µM (inactive) | 6.52 µM (inactive) | 2.72 µM (inactive) | 5.16 µM (inactive) | 2.99 µM (inactive)
C[C@]12CC[C@@H]3c4ccc(O)cc4CC[C@H]3[C@@H]1C/C(=C\c1ccc([N+](=O)[O-])cc1)C2=O | 52.6 µM (inactive) | 50 µM (inactive) | 48 µM (inactive) | 57.9 µM (inactive) | 37.8 µM (inactive) | 67 | 53.3 µM (inactive) | > 100 µM (inactive) | > 100 µM (inactive) | 52.6 µM (inactive) |  | 67.6 µM (inactive) | > 100 µM (inactive) | > 100 µM (inactive) | 78.9 µM (inactive) | 40 µM (inactive) | > 100 µM (inactive) | 80 µM (inactive) | > 100 µM (inactive) | 15.9 µM (inactive)
COCC([C@@H](O)C(O)C(=O)NCC[C@@H](C)c1nc(/C=C/CC2OC3(C[C@H](O)C2C)OC(C(C[C@H](O)C(C)[C@H](O)C(C)/C=C(C)/C(C)=C/C=C/C(C)=C/C#N)OC)[C@@H](OP(=O)(O)O)C3(C)C)co1)N(C)C (stereo not given in full) | 0.000192 µM (active) | 0.000182 µM (active) | 0.000139 µM (active) | 0.0004 µM (active) | 0.000175 µM (active) | 0.000202 | 0.000173 µM (active) | 0.000179 µM (active) | 0.000161 µM (active) | 0.000172 µM (active) | 0.00048 µM (active) | 0.000242 µM (active) | 0.00082 µM (active) | 0.000174 µM (active) | 0.000762 µM (active) | 0.000703 µM (active) | 0.000167 µM (active) | 0.000115 µM (active) | 0.00188 µM (active) | 
COc1ccc(C(OCC2OC(n3cc(C)c(=O)[nH]c3=O)CC2n2cc(Cn3cc(I)c(=O)[nH]c3=O)nn2)(c2ccccc2)c2ccccc2)cc1 (stereo not given) | 78.5 µM (inactive) | > 100 µM (inactive) |  | > 100 µM (inactive) | > 100 µM (inactive) | > 100 | > 100 µM (inactive) | > 100 µM (inactive) | > 100 µM (inactive) | > 100 µM (inactive) | 1.58 µM (inactive) | > 100 µM (inactive) | 7.67 µM (inactive) | > 100 µM (inactive) | > 100 µM (inactive) | > 100 µM (inactive) | > 100 µM (inactive) | > 100 µM (inactive) | > 100 µM (inactive) | > 100 µM (inactive)
O=C(CNc1ccccc1[N+](=O)[O-])Nn1c(-c2ccccc2)nc2ccccc2c1=O | 32.4 µM (inactive) | 28.7 µM (inactive) | 20.9 µM (inactive) | 43.5 µM (inactive) | 24.5 µM (inactive) | 19.9 | 16.7 µM (inactive) | 25.8 µM (inactive) | 16.3 µM (inactive) | 19.6 µM (inactive) | 31.7 µM (inactive) | 15.7 µM (inactive) | 16.1 µM (inactive) |  | 25.8 µM (inactive) | 17.3 µM (inactive) | 17.9 µM (inactive) | > 10 µM (inactive) | 26.2 µM (inactive) | 20.1 µM (inactive)
C[C@]12Cc3cnc(-c4ccccc4)nc3C[C@@H]1CC[C@@H]1[C@@H]2CC[C@@]2(C)[C@H]1CC[C@]2(C)O | 12.9 µM (inactive) | 17.9 µM (inactive) | 17.3 µM (inactive) | 12.8 µM (inactive) | 20.8 µM (inactive) | 9.44 | 11.1 µM (inactive) | 17.9 µM (inactive) | 19.7 µM (inactive) | 25.2 µM (inactive) | 17.9 µM (inactive) | 18.8 µM (inactive) | 34.3 µM (inactive) | 4.98 µM (inactive) | 17.6 µM (inactive) | 11 µM (inactive) | 23 µM (inactive) | 23.2 µM (inactive) | 16.3 µM (inactive) | 
